Assay results taken from US20150296790A1, “SILICON-CONTAINING COMPOUND AQUEOUS SOLUTION AND ANTIBACTERIAL/ANTIVIRAL AGENT INCLUDING SAID SOLUTION” (JEX CO., LTD., priority 2012, published 2015).

How the values were obtained:
Deodorant activity test = conditions: γ-CD 1 w/w %, Compound E 0.1 w/w %
Procedure: The predetermined samples shown in Tables 1 to 5 were tested for deodorant activity against ammonia, acetic acid, isovaleric acid, and nonenal. Now, the test, including the test conditions, will be specifically described. Test Items: The deodorant test and the test to gain SEK mark approval for textiles according to the certification standards of the Japan Textile Evaluation Technology Council (4 ml of sample liquid was applied to a cotton fabric and dried for a period of from 30 minutes to 1 hour. Then, the concentration of the gas volatilized from the cotton fabric was measured by a detection tube and gas chromatography) Odor tested: Ammonia, acetic acid, isovaleric acid, and nonenal Samples used: Sample 1): Compound E 0.1%+γ-CD 1%+purified water 98.9% • Sample 2): Compound E 0.1%+γ-CD 5%+purified water 94.9% Initial gas concentration: Ammonia: 100 ppm (100 cm^2) • Acetic acid: 50 ppm (100 cm^2) • Isovaleric acid: about 38 ppm (48 cm^2) • Nonenal: about 14 ppm (48 cm^2)

[1] = Stability over time (three-month storage tests, visual); assay type: physicochemical; conditions: purified water

CCCCCCCCCCCCCCCCCC[N+](C)(C)CCC[Si](OCC)(OCC)OCC.[Cl-] [Compound E, Octadecyl dimethyl(3-triethoxysilylpropyl)ammonium chloride]
Deodorant Effect: Deodorant Activity Test (by Detection Tube and Gas Chromatography) (Deodorant activity test): Confirmed
Change Over 3 Months (Accelerated Test at 40° C., Cold Test at 5° C., Ambient Test at 25° C.) ([1]; DEXYPEARL 1 w/w %, Compound E 0.1 w/w %): Not clear but stable
Change Over 3 Months (Accelerated Test at 40° C., Cold Test at 5° C., Ambient Test at 25° C.) ([1]; DEXYPEARL 2 w/w %, Compound E 0.1 w/w %): Not clear but stable
Change Over 3 Months (Accelerated Test at 40° C., Cold Test at 5° C., Ambient Test at 25° C.) ([1]; DEXYPEARL 3 w/w %, Compound E 0.1 w/w %): Not clear but stable
Change Over 3 Months (Accelerated Test at 40° C., Cold Test at 5° C., Ambient Test at 25° C.) ([1]; DEXYPEARL 4 w/w %, Compound E 0.1 w/w %): Not clear but stable
Change Over 3 Months (Accelerated Test at 40° C., Cold Test at 5° C., Ambient Test at 25° C.) ([1]; DEXYPEARL 5 w/w %, Compound E 0.1 w/w %): Not clear but stable
Change Over 3 Months (Accelerated Test at 40° C., Cold Test at 5° C., Ambient Test at 25° C.) ([1]; DEXYPEARL 6 w/w %, Compound E 0.1 w/w %): Not clear but stable
Change Over 3 Months (Accelerated Test at 40° C., Cold Test at 5° C., Ambient Test at 25° C.) ([1]; DEXYPEARL 7 w/w %, Compound E 0.1 w/w %): Not clear but stable
Change Over 3 Months (Accelerated Test at 40° C., Cold Test at 5° C., Ambient Test at 25° C.) ([1]; DEXYPEARL 8 w/w %, Compound E 0.1 w/w %): Not clear but stable
Change Over 3 Months (Accelerated Test at 40° C., Cold Test at 5° C., Ambient Test at 25° C.) ([1]; DEXYPEARL 9 w/w %, Compound E 0.1 w/w %): Not clear but stable
Change Over 3 Months (Accelerated Test at 40° C., Cold Test at 5° C., Ambient Test at 25° C.) ([1]; DEXYPEARL 10 w/w %, Compound E 0.1 w/w %): Not clear but stable
Change Over 3 Months (Accelerated Test at 40° C., Cold Test at 5° C., Ambient Test at 25° C.) ([1]; DEXYPEARL 20 w/w %, Compound E 0.1 w/w %): Precipitated
Change Over 3 Months (Accelerated Test at 40° C., Cold Test at 5° C., Ambient Test at 25° C.) ([1]; DEXYPEARL 30 w/w %, Compound E 0.1 w/w %): Precipitated
Change Over 3 Months (Accelerated Test at 40° C., Cold Test at 5° C., Ambient Test at 25° C.) ([1]; DEXYPEARL 40 w/w %, Compound E 0.1 w/w %): Precipitated
Change Over 3 Months (Accelerated Test at 40° C., Cold Test at 5° C., Ambient Test at 25° C.) ([1]; ISOELEAT 1 w/w %, Compound E 0.1 w/w %): Not clear but stable
Change Over 3 Months (Accelerated Test at 40° C., Cold Test at 5° C., Ambient Test at 25° C.) ([1]; ISOELEAT 2 w/w %, Compound E 0.1 w/w %): Not clear but stable
Change Over 3 Months (Accelerated Test at 40° C., Cold Test at 5° C., Ambient Test at 25° C.) ([1]; ISOELEAT 3 w/w %, Compound E 0.1 w/w %): Not clear but stable
Change Over 3 Months (Accelerated Test at 40° C., Cold Test at 5° C., Ambient Test at 25° C.) ([1]; ISOELEAT 4 w/w %, Compound E 0.1 w/w %): Not clear but stable
Change Over 3 Months (Accelerated Test at 40° C., Cold Test at 5° C., Ambient Test at 25° C.) ([1]; ISOELEAT 5 w/w %, Compound E 0.1 w/w %): Not clear but stable
Change Over 3 Months (Accelerated Test at 40° C., Cold Test at 5° C., Ambient Test at 25° C.) ([1]; ISOELEAT 6 w/w %, Compound E 0.1 w/w %): Not clear but stable
Change Over 3 Months (Accelerated Test at 40° C., Cold Test at 5° C., Ambient Test at 25° C.) ([1]; ISOELEAT 7 w/w %, Compound E 0.1 w/w %): Not clear but stable
Change Over 3 Months (Accelerated Test at 40° C., Cold Test at 5° C., Ambient Test at 25° C.) ([1]; ISOELEAT 8 w/w %, Compound E 0.1 w/w %): Not clear but stable
Change Over 3 Months (Accelerated Test at 40° C., Cold Test at 5° C., Ambient Test at 25° C.) ([1]; ISOELEAT 9 w/w %, Compound E 0.1 w/w %): Not clear but stable
Change Over 3 Months (Accelerated Test at 40° C., Cold Test at 5° C., Ambient Test at 25° C.) ([1]; ISOELEAT 10 w/w %, Compound E 0.1 w/w %): Precipitated
Change Over 3 Months (Accelerated Test at 40° C., Cold Test at 5° C., Ambient Test at 25° C.) ([1]; ISOELEAT 20 w/w %, Compound E 0.1 w/w %): Precipitated
Change Over 3 Months (Accelerated Test at 40° C., Cold Test at 5° C., Ambient Test at 25° C.) ([1]; ISOELEAT 30 w/w %, Compound E 0.1 w/w %): Precipitated
Change Over 3 Months (Accelerated Test at 40° C., Cold Test at 5° C., Ambient Test at 25° C.) ([1]; ISOELEAT 40 w/w %, Compound E 0.1 w/w %): Precipitated
Change Over 3 Months (Accelerated Test at 40° C., Cold Test at 5° C., Ambient Test at 25° C.) ([1]; ISOELEAT 50 w/w %, Compound E 0.1 w/w %): Precipitated
Change Over 3 Months (Accelerated Test at 40° C., Cold Test at 5° C., Ambient Test at 25° C.) ([1]; α-CD 1 w/w %, Compound E 0.1 w/w %): Stable
Change Over 3 Months (Accelerated Test at 40° C., Cold Test at 5° C., Ambient Test at 25° C.) ([1]; α-CD 1 w/w %, Compound E 0.2 w/w %): Stable
Change Over 3 Months (Accelerated Test at 40° C., Cold Test at 5° C., Ambient Test at 25° C.) ([1]; α-CD 1 w/w %, Compound E 0.3 w/w %): Stable
Change Over 3 Months (Accelerated Test at 40° C., Cold Test at 5° C., Ambient Test at 25° C.) ([1]; α-CD 1 w/w %, Compound E 0.4 w/w %): Stable
Change Over 3 Months (Accelerated Test at 40° C., Cold Test at 5° C., Ambient Test at 25° C.) ([1]; α-CD 1 w/w %, Compound E 0.5 w/w %): Stable
Change Over 3 Months (Accelerated Test at 40° C., Cold Test at 5° C., Ambient Test at 25° C.) ([1]; α-CD 1 w/w %, Compound E 0.6 w/w %): Stable
